Experimental data: the supplement of paper PMC6045584
± gives the standard deviation of the averaged measurements.

Key:
[1] = compound: CCN(CC)CCCCNc1ncc2cc(-c3cc(OC)cc(OC)c3)c(NC(=O)NC(C)(C)C)nc2n1; experiment: surviving fraction relative to DMSO-only wells; higher = less growth inhibition; details: exposure time: 5 days
Summary of the method: (§1)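 Log-phase tumour cell lines were seeded at 250–500 cells per well in 384-well plates. After 24 hours they were exposed continuously for five days to inhibitors at 0.5, 1, 5, 10, 50, 100, 500 and 1000 nM. Viability was read by CellTiter-Glo luminescence after 10 minutes at room temperature, and surviving fraction is luminescence normalised to the median of DMSO-only wells. Each line was screened three times and kept only if replicate Pearson r >0.7 and median Z' >0.3.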

VISMODEGIB = compound: CS(=O)(=O)c1ccc(C(=O)Nc2ccc(Cl)c(-c3ccccn3)c2)c(Cl)c1 [VISMODEGIB]; experiment: as above; details: exposure time: 5 days
Summary of the method: as §1

Test System	surviving fraction ([1]; 0.5 nM)	surviving fraction ([1]; 1 nM)	surviving fraction ([1]; 5 nM)	surviving fraction ([1]; 10 nM)	surviving fraction ([1]; 50 nM)	surviving fraction ([1]; 100 nM)	surviving fraction ([1]; 500 nM)	surviving fraction ([1]; 1000 nM)	surviving fraction (VISMODEGIB; 0.5 nM)	surviving fraction (VISMODEGIB; 1 nM)	surviving fraction (VISMODEGIB; 5 nM)	surviving fraction (VISMODEGIB; 10 nM)	surviving fraction (VISMODEGIB; 50 nM)	surviving fraction (VISMODEGIB; 100 nM)	surviving fraction (VISMODEGIB; 500 nM)	surviving fraction (VISMODEGIB; 1000 nM)
PCI30 HEADNECK	0.906 ± 0.074	0.969 ± 0.09	0.984 ± 0.11	1.08 ± 0.058	1.04 ± 0.054	1.1 ± 0.1	0.912 ± 0.011	0.995 ± 0.093	0.911 ± 0.028	0.956 ± 0.07	0.96 ± 0.04	0.947 ± 0.065	0.898 ± 0.079	0.949 ± 0.017	0.844 ± 0.077	0.876 ± 0.043
RDES SOFT TISSUE	1.2 ± 0.034	1.35 ± 0.094	1.25 ± 0.088	1.26 ± 0.11	1.13 ± 0.032	1.25 ± 0.16	1.08 ± 0.29	1.06 ± 0.1	1.06 ± 0.088	1.1 ± 0.047	1.11 ± 0.22	1.16 ± 0.034	0.677 ± 0.3	0.83 ± 0.34	0.761 ± 0.18	0.717 ± 0.32
S68 BREAST	0.948 ± 0.29	1.01 ± 0.22	1.285 ± 0.0036	0.836 ± 0.1	1.02 ± 0.06	1.11 ± 0.3	0.864 ± 0.18	0.81 ± 0.22	0.99 ± 0.087	0.839 ± 0.11	1.21 ± 0.25	1.04 ± 0.2	0.762 ± 0.19	0.917 ± 0.23	0.805 ± 0.12	0.621 ± 0.058
SAOS2 BONE	1.09 ± 0.035	1.195 ± 0.011	1.2 ± 0.077	1.21 ± 0.042	1.23 ± 0.043	1.19 ± 0.037	0.995 ± 0.051	0.906 ± 0.054	1.11 ± 0.052	1.097 ± 0.0075	1.08 ± 0.059	1.099 ± 0.0081	0.834 ± 0.082	0.954 ± 0.052	0.85 ± 0.036	0.916 ± 0.055
SCC003 HEADNECK	0.927 ± 0.046	1.02 ± 0.055	1.02 ± 0.092	1.01 ± 0.086	0.981 ± 0.037	1.11 ± 0.091	1.09 ± 0.13	0.988 ± 0.097	0.956 ± 0.073	0.988 ± 0.029	1.05 ± 0.17	1.06 ± 0.11	0.918 ± 0.082	1.05 ± 0.14	0.852 ± 0.08	0.98 ± 0.056
SCC36 HEADNECK	1.1 ± 0.082	1.03 ± 0.12	1.1 ± 0.15	1.19 ± 0.028	0.978 ± 0.086	1.04 ± 0.043	0.83 ± 0.039	0.692 ± 0.082	0.88 ± 0.031	0.979 ± 0.033	1.07 ± 0.048	1.05 ± 0.051	0.739 ± 0.094	0.779 ± 0.085	0.731 ± 0.071	0.721 ± 0.076
SCC47 HEADNECK	0.979 ± 0.033	0.993 ± 0.082	0.996 ± 0.05	1.07 ± 0.047	0.968 ± 0.079	1 ± 0.14	1.05 ± 0.067	0.995 ± 0.019	0.968 ± 0.064	1 ± 0.07	0.992 ± 0.044	1.04 ± 0.07	0.892 ± 0.026	0.963 ± 0.026	0.9167 ± 0.004	0.954 ± 0.016
SCC90 HEADNECK	0.884 ± 0.044	0.96 ± 0.036	0.839 ± 0.18	0.951 ± 0.036	0.88 ± 0.049	0.961 ± 0.17	0.883 ± 0.17	0.814 ± 0.035	0.824 ± 0.014	0.945 ± 0.051	0.908 ± 0.092	1.01 ± 0.023	0.848 ± 0.026	0.84 ± 0.053	0.841 ± 0.015	0.881 ± 0.029
SG27 HEADNECK	0.947 ± 0.15	1.03 ± 0.087	1.01 ± 0.12	1.01 ± 0.086	0.879 ± 0.04	0.817 ± 0.032	0.784 ± 0.05	0.805 ± 0.047	0.942 ± 0.013	0.974 ± 0.13	1 ± 0.062	0.962 ± 0.071	0.933 ± 0.039	0.961 ± 0.052	0.9 ± 0.052	1.03 ± 0.13
SG28 HEADNECK	1.04 ± 0.15	1.09 ± 0.076	1.03 ± 0.09	1.11 ± 0.034	0.968 ± 0.028	1.05 ± 0.1	0.967 ± 0.091	0.938 ± 0.11	1 ± 0.033	0.995 ± 0.042	0.979 ± 0.096	0.921 ± 0.096	0.801 ± 0.043	0.831 ± 0.019	0.837 ± 0.076	0.929 ± 0.099
SG31 HEADNECK	1.04 ± 0.055	0.949 ± 0.11	0.934 ± 0.15	0.932 ± 0.12	0.845 ± 0.12	0.997 ± 0.051	0.934 ± 0.069	0.934 ± 0.1	0.965 ± 0.17	1.01 ± 0.2	0.946 ± 0.088	1.11 ± 0.22	0.783 ± 0.031	0.94 ± 0.054	0.834 ± 0.049	0.826 ± 0.091
SG32 HEADNECK	1.03 ± 0.14	1.05 ± 0.086	1.15 ± 0.13	1.01 ± 0.16	0.859 ± 0.027	0.793 ± 0.0076	1.36 ± 0.92	0.884 ± 0.15	1.01 ± 0.031	1.08 ± 0.11	1.07 ± 0.17	1.58 ± 0.69	0.857 ± 0.06	1.08 ± 0.26	0.844 ± 0.14	0.873 ± 0.075
SG43 HEADNECK	0.9 ± 0.076	0.971 ± 0.053	0.974 ± 0.15	0.966 ± 0.095	0.85 ± 0.13	0.905 ± 0.24	0.95 ± 0.12	0.811 ± 0.16	0.961 ± 0.18	1.15 ± 0.63	0.861 ± 0.075	0.972 ± 0.32	1.18 ± 0.35	0.9673 ± 0.0015	1.17 ± 0.3	1.18 ± 0.14
SIHA CERVIX	0.945 ± 0.075	0.972 ± 0.043	1.07 ± 0.055	1.07 ± 0.051	0.908 ± 0.063	0.905 ± 0.098	0.776 ± 0.027	0.818 ± 0.013	0.961 ± 0.024	1.08 ± 0.038	1.03 ± 0.045	1.06 ± 0.025	0.923 ± 0.044	0.993 ± 0.12	0.895 ± 0.097	0.991 ± 0.064
SJSA1 BONE	1.04 ± 0.052	1.04 ± 0.026	1.04 ± 0.026	1.09 ± 0.034	1.08 ± 0.021	1.07 ± 0.038	1.023 ± 0.0089	1.04 ± 0.034	0.999 ± 0.043	1.01 ± 0.07	1.04 ± 0.024	1.01 ± 0.045	1.04 ± 0.073	1.02 ± 0.052	1.02 ± 0.093	0.985 ± 0.05
SKBR3 BREAST	0.9 ± 0.11	0.967 ± 0.072	0.975 ± 0.22	0.851 ± 0.057	0.979 ± 0.13	0.992 ± 0.077	1 ± 0.05	0.848 ± 0.13	1.15 ± 0.085	0.954 ± 0.027	0.907 ± 0.059	0.975 ± 0.09	1.01 ± 0.068	0.896 ± 0.029	0.764 ± 0.026	0.774 ± 0.075
SNU475 LIVER	0.785 ± 0.028	0.964 ± 0.053	0.894 ± 0.05	0.987 ± 0.027	0.916 ± 0.044	0.939 ± 0.019	0.906 ± 0.022	0.886 ± 0.029	0.959 ± 0.046	0.946 ± 0.057	0.967 ± 0.019	0.982 ± 0.0087	0.884 ± 0.032	0.89 ± 0.03	0.869 ± 0.024	0.902 ± 0.012
SUM44 BREAST	0.956 ± 0.064	0.928 ± 0.04	1.03 ± 0.019	1.04 ± 0.087	1.04 ± 0.095	1.04 ± 0.094	0.985 ± 0.026	1.03 ± 0.037	0.945 ± 0.033	0.951 ± 0.048	0.994 ± 0.017	0.934 ± 0.02	0.929 ± 0.051	0.9713 ± 0.0095	0.924 ± 0.14	0.876 ± 0.055
SUM149 BREAST	0.881 ± 0.14	1.12 ± 0.057	0.998 ± 0.037	1.21 ± 0.049	1.03 ± 0.069	1.1 ± 0.13	1.01 ± 0.056	1.08 ± 0.14	0.871 ± 0.11	0.856 ± 0.042	0.968 ± 0.053	0.877 ± 0.0066	0.904 ± 0.1	0.887 ± 0.014	0.945 ± 0.088	0.895 ± 0.077
SUM149.B1*.S BREAST	0.852 ± 0.049	1 ± 0.017	0.952 ± 0.024	1.02 ± 0.021	0.933 ± 0.029	1.06 ± 0.041	1.03 ± 0.011	1.08 ± 0.017	0.992 ± 0.064	0.971 ± 0.056	0.981 ± 0.033	0.987 ± 0.039	0.922 ± 0.051	0.988 ± 0.0033	0.9072 ± 0.0081	0.913 ± 0.054
SUM159 BREAST	1.14 ± 0.3	1.1 ± 0.2	1.18 ± 0.36	1.14 ± 0.26	1.12 ± 0.26	1.13 ± 0.23	1.11 ± 0.21	1.18 ± 0.3	1.14 ± 0.23	1.12 ± 0.17	1.14 ± 0.22	1.15 ± 0.22	1.06 ± 0.12	1.08 ± 0.084	1.12 ± 0.2	1.11 ± 0.14
